Source: publication PMC10449621, “Engineering cellular communication between light-activated synthetic cells and bacteria” (Nature Chemical Biology, 2023)
“And” between values parts separate entries of the source, which are not always exact repeats. Equal entries are not always repeated. “Also recorded” adds a separate entry of the source.

How the values were obtained:
[1] = tested on: BjaRS107R (B0033|ATG) receiver cells; assay: BjaR receiver cell AHSL dose-response (gfp reporter, plate reader); assay type: cell-based, E. coli XL10-Gold
Excerpt: (§1) These findings are consistent with the predicted translation initiation rates of the respective sequences—translation from the BBa_B0033 RBS provides 1% of protein yield compared to the BBa_B0034 RBS, just as an CTG start codon provides 1% of the protein yield compared to an ATG start codon[30],[31]. This also offers support as to why the ON-state gfp expression level increased in variants with a tighter OFF-state; more cellular resources were available for GFP synthesis when comparatively fewer were allocated to BjaR synthesis. To elucidate the impact of the S107R variant on gene circuit performance, we introduced the S107R variant alone back into the bjaRWT gene, in the context of the BBa_B0033 RBS background.
(§2) In addition to quantifying how these BjaR receiver cells responded to their branched, cognate ligand, we also sought to determine whether the BjaR receiver cells could be activated by structurally dissimilar AHSLs involved in the LuxI/R, EsaI/R, LasI/R and RhlI/R QS systems previously used in synthetic cell communication[5],[7],[8]. To this end, we measured the fluorescence of BjaR receiver cells grown in the presence of their activators, 3OC6-HSL, 3OC12-HSL and C4-HSL, respectively (Supplementary Fig. 13a).
(§3) The BjaR reporter plasmids were retransformed into E. coli XL10-Gold cells for each experiment. A single colony was used to inoculate 5 ml LB + Amp media and incubated at 37 °C, 225 r.p.m. overnight. Overnight cultures were diluted 1/250 or 1/500 in 5 ml M9 minimal media + Amp and incubated at 37 °C, 225 r.p.m. for 3 h and 45 min (until OD600 = ~0.075). Cultures were diluted down to OD600 = 0.05 with M9 minimal media + Amp, and 200 µl was added to wells of a 96-well plate containing 1 µl IV-HSL dissolved in DMSO or 1 µl BjaI CFPS reactions (IV-HSL concentrations obtained from serial dilution from 63.2 µM to 632 pM; final DMSO concentration = 0.5%). Cells were incubated at 37 °C, 800 r.p.m., in a thermomixer with a heated lid for 4 h. Fluorescence and OD600 were measured in a Tecan M1000 infinite plate reader (excitation, 488 nm; emission, 510 nm; bandwidth, 5 nm; gain, 101 and z position, 21,311 µm). The dose–response curves were fitted to the function indicated by Eq. (1), where a = maximal fluorescence output, b = basal fluorescence output, X = concentration of AHSL, GFP = fluorescence at the given condition, EC50 = AHSL at 50% maximal fluorescence output and h = hill coefficient. EC50 and h were derived using the nonlinear regression model based on Eq. (1), in MATLAB. A summary of the dose–response data is available in Supplementary Table 1.1 GFP=b+a−b/1+10^logEC50−X×h

[2] = tested on: BjaRWT (B0033|ATG) receiver cells; assay: as above; assay type: cell-based, E. coli XL10-Gold; settings: for Mean normalised fluorescence / Normalised fluorescence / GFP: sheet 3e; for Normalised fluorescence / GFP: Expt1-3; for GFP: raw fluorescence ex 488/em 510 nm
Excerpt: as §1, §2, §3

pRhlI promoters (RhlR) = tested on: pRhlI promoters (RhlR); design: method as in PMID 29992956; settings: cited from earlier work

| SMILES | Mean normalised fluorescence ([2]; Log([ASHL]) -6.5) | Mean normalised fluorescence ([2]; Log([ASHL]) -7) | Normalised fluorescence ([2]; Log([ASHL]) -7) | GFP ([2]; Log([ASHL]) -7) | Mean normalised fluorescence ([2]; Log([ASHL]) -7.5) | Normalised fluorescence ([2]; Log([ASHL]) -7.5) | GFP ([2]; Log([ASHL]) -7.5) | Mean normalised fluorescence ([2]; Log([ASHL]) -8) | Normalised fluorescence ([2]; Log([ASHL]) -8) | GFP ([2]; Log([ASHL]) -8) | Mean normalised fluorescence ([2]; Log([ASHL]) -8.5) | Normalised fluorescence ([2]; Log([ASHL]) -8.5) | GFP ([2]; Log([ASHL]) -8.5) | Mean normalised fluorescence ([2]; Log([ASHL]) -9) | Normalised fluorescence ([2]; Log([ASHL]) -9) | GFP ([2]; Log([ASHL]) -9) | Mean normalised fluorescence ([2]; Log([ASHL]) -9.5) | Normalised fluorescence ([2]; Log([ASHL]) -9.5) | GFP ([2]; Log([ASHL]) -9.5) | Mean normalised fluorescence ([2]; Log([ASHL]) -10) | also measured |
| --- | --- | --- | --- | --- | --- | --- | --- | --- | --- | --- | --- | --- | --- | --- | --- | --- | --- | --- | --- | --- | --- |
| CCCC(=O)CC(=O)N[C@H]1CCOC1=O [3OC6-HSL, N-(3-oxo-hexanoyl)-L-homoserine lactone] | – | – | – | – | – | – | – | – | – | – | – | – | – | – | – | – | – | – | – | – | gfp expression in response to non-cognate AHSL [1]: minimal GFP was produced; gfp expression in response to non-cognate AHSL [2]: did not express gfp; also recorded: minimal GFP was produced |
| CCCCCCCCCC(=O)CC(=O)N[C@H]1CCOC1=O [3OC12-HSL] | – | – | – | – | – | – | – | – | – | – | – | – | – | – | – | – | – | – | – | – | gfp expression in response to non-cognate AHSL [1]: minimal GFP was produced; gfp expression in response to non-cognate AHSL [2]: did not express gfp; also recorded: minimal GFP was produced |
| CCCC(=O)N[C@H]1CCOC1=O [C4-HSL, N-butyryl-L-homoserine lactone] | – | – | – | – | – | – | – | – | – | – | – | – | – | – | – | – | – | – | – | – | sensitivity for IV-HSL over C4-HSL ([1]; C4-HSL vs IV-HSL): ~126 fold; activation of receiver cells at maximal concentration tested ([2]; 0.36 µM): partially activated; C4-HSL required relative to IV-HSL for the same fluorescence output (lower sensitivity) ([2]; C4-HSL vs IV-HSL): ~126 ×; concentration required to fully activate expression from pRhlI promoters (pRhlI promoters (RhlR)): > 100 µM |
| CCCC(=O)N[C@H]1CCOC1=O [C4HSL] | 89755.1 | 24851.4 | 25795.6 and 21987 and 26771.5 | 6504 and 5697 and 8639 | 5633.53 | 5943.36 and 4742.76 and 6214.47 | 1544 and 1323 and 2047 | 2030.88 | 2169.85 and 1704.52 and 2218.28 | 628 and 544 and 810 | 1297.09 | 1166.04 and 1369.65 and 1355.57 | 416 and 558 and 438 | 1170.67 | 1077.7 and 1245.14 and 1189.19 | 387 and 507 and 403 | 1170.76 | 1086.47 and 1200.78 and 1225.03 | 387 and 492 and 393 | 1105.3 | Normalised fluorescence ([2]; Log([ASHL]) -6.5): 87597.7 and 86111.2 and 95556.3; GFP ([2]; Log([ASHL]) -6.5): 21193 and 21411 and 30615; Normalised fluorescence ([2]; Log([ASHL]) -10): 1065.28 and 1106.75 and 1143.86; GFP ([2]; Log([ASHL]) -10): 377 and 461; Mean normalised fluorescence ([2]; Log([ASHL]) -10.5): 1140.47; Normalised fluorescence ([2]; Log([ASHL]) -10.5): 1078 and 1145.04 and 1198.38; GFP ([2]; Log([ASHL]) -10.5): 375 and 468 and 384; Mean normalised fluorescence ([2]; Log([ASHL]) -11): 1127.16; Normalised fluorescence ([2]; Log([ASHL]) -11): 1056.83 and 1148.2 and 1176.47; GFP ([2]; Log([ASHL]) -11): 372 and 467 and 379; Mean normalised fluorescence ([2]; Log([ASHL]) -11.5): 1165.29; Normalised fluorescence ([2]; Log([ASHL]) -11.5): 1094.25 and 1223.38 and 1178.24; GFP ([2]; Log([ASHL]) -11.5): 376 and 387 and 476 |
| CCCCCC(=O)N[C@H]1CCOC1=O [C6HSL] | 1368.65 | 1069.59 | 1188.52 and 915.717 and 1104.54 | 407 and 365 and 478 | 1072.17 | 1112.94 and 960.351 and 1143.21 | 387 and 361 and 491 | 1019.8 | 1032.26 and 951.298 and 1075.83 | 373 and 371 and 472 | 1002.73 | 909.599 and 1094.09 and 1004.49 | 364 and 473 and 363 | 1027.01 | 916.088 and 1080.14 and 1084.79 | 364 and 464 and 378 | 1017.95 | 932.091 and 1057.66 and 1064.1 | 365 and 455 and 371 | 1072.17 | Normalised fluorescence ([2]; Log([ASHL]) -6.5): 1655.84 and 1049.46 and 1400.63; GFP ([2]; Log([ASHL]) -6.5): 525 and 399 and 567; Normalised fluorescence ([2]; Log([ASHL]) -10): 960.615 and 1126.04 and 1129.87; GFP ([2]; Log([ASHL]) -10): 370 and 475 and 378; Mean normalised fluorescence ([2]; Log([ASHL]) -10.5): 1041.96; Normalised fluorescence ([2]; Log([ASHL]) -10.5): 969.437 and 1060.85 and 1095.6; GFP ([2]; Log([ASHL]) -10.5): 369 and 456 and 376; Mean normalised fluorescence ([2]; Log([ASHL]) -11): 1037.02; Normalised fluorescence ([2]; Log([ASHL]) -11): 937.562 and 1077.9 and 1095.59; GFP ([2]; Log([ASHL]) -11): 358 and 462 and 368; Mean normalised fluorescence ([2]; Log([ASHL]) -11.5): 1058.71; Normalised fluorescence ([2]; Log([ASHL]) -11.5): 974.837 and 1085.17 and 1116.13; GFP ([2]; Log([ASHL]) -11.5): 366 and 368 and 469 |
| CCCCCCCCCCCC(=O)N[C@H]1CCOC1=O [C12-HSL] | 3660.47 | 1319.41 | 1877.08 and 986.388 and 1094.76 | 569 and 370 and 480 | 1262.26 | 1653.64 and 971.756 and 1161.39 | 519 and 366 and 490 | 1041.4 | 1139.61 and 918.045 and 1066.55 | 388 and 367 and 474 | 1040.51 | 943.135 and 1084.52 and 1093.88 | 358 and 472 and 378 | 1031.28 | 984.805 and 1073.68 and 1035.35 | 376 and 464 and 363 | 1017.68 | 918.306 and 1057.93 and 1076.79 | 351 and 459 and 368 | 1062.17 | Normalised fluorescence ([2]; Log([ASHL]) -10): 938.8 and 1069.72 and 1178; GFP ([2]; Log([ASHL]) -10): 357 and 459 and 389; Mean normalised fluorescence ([2]; Log([ASHL]) -10.5): 1063.23; Normalised fluorescence ([2]; Log([ASHL]) -10.5): 1055.63 and 1095.89 and 1038.16; GFP ([2]; Log([ASHL]) -10.5): 379 and 459 and 370; Mean normalised fluorescence ([2]; Log([ASHL]) -11): 1104.13; Normalised fluorescence ([2]; Log([ASHL]) -11): 961.19 and 1115.34 and 1235.86; GFP ([2]; Log([ASHL]) -11): 359 and 475 and 401; Mean normalised fluorescence ([2]; Log([ASHL]) -11.5): 1958.08; GFP ([2]; Log([ASHL]) -11.5): 637 and 706 and 473 |
